{"source": "patent US9724448B2", "about": "“Materials for gastrointestinal obstruction prevention” (3-D MATRIX, LTD., priority 2013, dated 2017)", "format_in_all_cases": "in vivo, human", "key": {"[1]": {"test_system": "artificial ulcer after ESD of early-stage esophageal cancer", "test": "Stenosis prevention after endoscopic resection of esophageal cancer (artificial ulcer, 4/5 circumferential spread)", "description": "Testing was performed on a subject having an ulcer (lesion) after an endoscopic resection of esophageal cancer. […] Endoscopic submucosal dissection was performed, which created an ulcer. […] A ⅘ circumferential spread may cause stenosis in the absence of applying a peptide solution to form a hydrogel. After confirming that there was no hemorrhaging in the artificial ulcer surface after an endoscopic resection, a catheter was passed through an endoscope, and a peptide solution such as PuraMatrix™ peptide hydrogel by 3-D Matrix, LTD. (2.5%, suitable dose (1 mL per 1 cm^2)) in a syringe was coated evenly over the ulcer surface. […] On the first week after surgery, an endoscope is used to review the area. At this time, as with the initial round, the peptide solution is coated evenly over the ulcer surface. For past cases, an endoscope was used to perform a third and fourth review of the area, in the fourth and eighth weeks, respectively, after surgery that induced stenosis, to judge the effectiveness of the peptide solution coating. […] The endoscope passage is possible in stenosis direction."}, "[2]": {"test_system": "ESD-induced ulcer (esophageal, gastric, colorectal ESD)", "description": "Testing was performed in human subjects in order to determine the ability of disclosed peptides to prevent gastrointestinal obstruction. Subjects who underwent esophageal, gastric, and colorectal endoscopic submucosal dissection (ESD) by nine endoscopists participated in the testing. Subjects receiving antithrombotic therapy were included in the study, but such medications were no longer being administered prior to the procedures. Cases with perforation and coagulopathy (international normalized ratio (INR)>3) despite anticoaculation management after heparin bridge therapy (HBT) were excluded. […] After the ESD procedure, a self-assembling peptide was administered to a target area in the subject. […] For every 1 cm^2 of tumor, 1 mL of self-assembling peptide RADA16, in the form of PuraMatrix™ peptide hydrogel by 3-D Matrix, LTD. (2.5 w/v percent) was applied to the ESD-induced ulcer using a catheter immediately after the procedure. A single dose proton pump inhibitor was administered in gastric ESD cases for 8 weeks beginning the morning of the procedure. Gastric ulcer stages were evaluated by endoscopy as active, healing or scarring at 1, 4, and 8 weeks after ESDs, and application of the self-assembling peptide. The primary endpoint was the rate of post-ESD bleeding. The secondary endpoints include the transitional rate to healing and scarring stages of gastric ESD-induced ulcers. Of the 117 subjects recruited, 114 patients with 124 lesions (esophagus 18; stomach 42; colorectum 64) were enrolled for outcome analysis and […] were excluded due to perforations and […]."}, "[3]": {"test_system": "gastric ESD-induced ulcers", "test": "Gastric ulcer stage by endoscopy (active, healing, scarring) after ESD and peptide application", "description": "After the ESD procedure, a self-assembling peptide was administered to a target area in the subject. […] For every 1 cm^2 of tumor, 1 mL of self-assembling peptide RADA16, in the form of PuraMatrix™ peptide hydrogel by 3-D Matrix, LTD. (2.5 w/v percent) was applied to the ESD-induced ulcer using a catheter immediately after the procedure. A single dose proton pump inhibitor was administered in gastric ESD cases for 8 weeks beginning the morning of the procedure. Gastric ulcer stages were evaluated by endoscopy as active, healing or scarring at 1, 4, and 8 weeks after ESDs, and application of the self-assembling peptide. The primary endpoint was the rate of post-ESD bleeding. The secondary endpoints include the transitional rate to healing and scarring stages of gastric ESD-induced ulcers."}}, "note": "Like-named read-outs stand apart in the source and are kept apart here.", "data": [{"substance": "Arg-Ala-Asp-Ala-Arg-Ala-Asp-Ala-Arg-Ala-Asp-Ala-Arg-Ala-Asp-Ala [PuraMatrix]", "values": [{"measurement": "endoscope passage in stenosis direction", "setting": "[1]; 4 weeks after surgery", "result": "possible"}, {"measurement": "ulcer state by endoscope", "setting": "[1]; 4 weeks after surgery, 2.5%, 1 mL per 1 cm^2, coated at surgery and at first week", "result": "scarring"}, {"measurement": "endoscope passage in stenosis direction", "setting": "[1]; 8 weeks after surgery", "result": "possible"}, {"measurement": "side effects of the endoscopic resection (delayed hemorrhaging, perforations)", "setting": "[1]; one subject, esophageal ESD", "result": "no delayed hemorrhaging or perforations"}, {"measurement": "rate of post-ESD bleeding", "setting": "[2]; all lesions (2/124), 2.5 w/v percent, 1 mL per 1 cm^2, by catheter immediately after ESD", "result": 1.6, "unit": "%"}, {"measurement": "rate of post-ESD bleeding", "setting": "[2]; colorectum (1/64; 0.02% to 1.6%)", "result": 1.6, "unit": "%"}, {"measurement": "rate of post-ESD bleeding", "setting": "[2]; esophagus", "result": 0, "unit": "%"}, {"measurement": "adverse effects related with the use of the self-assembling peptide", "setting": "[2]; in vivo", "result": "no adverse effects"}, {"measurement": "rate of post-ESD bleeding", "setting": "[2]; stomach (1/43; 95% confidence interval 0.04% to 12.3%)", "result": 2.4, "unit": "%"}, {"measurement": "Transitional rate to healing stage", "setting": "[3]; at 1 week after ESD, with proton pump inhibitor", "result": 98, "unit": "%"}, {"measurement": "scarring stage at follow up endoscopy", "setting": "[3]; at 4 weeks after ESD", "result": 21, "unit": "%"}, {"measurement": "scarring stage at follow up endoscopy", "setting": "[3]; at 8 weeks after ESD", "result": 97, "unit": "%"}]}]}
